Reference: patent publication US7897175B2, “Dosage forms comprising a CETP inhibitors and an HMG-CoA reductase inhibitor” (Bend Research, Inc., priority 2002, dated 2011)

Experiments:
[1] = In vitro dissolution test using a microcentrifuge method (PBS); format: physicochemical; conditions: for AUC90 (area under the aqueous concentration versus time curve after 90 minutes) / C1200 (concentration at 1200 minutes) / MDC90 (maximum concentration of torcetrapib in solution during the first 90 minutes): receptor solution PBS; for Torcetrapib Concentration / AUC: PBS pH 6.5, 37° C.; for Torcetrapib Concentration: 1000 μg/mL if all drug dissolved
Experimental: The spray-dried solid amorphous dispersion was evaluated in an in vitro dissolution test using a microcentrifuge method. In this test, 7.2 mg of the spray-dried solid amorphous dispersion was placed into a microcentrifuge tube. The tube was placed in a 37° C. sonicating bath, and 1.8 mL phosphate buffered saline (PBS) at pH 6.5 and 290 mOsm/kg was added, resulting in a torcetrapib concentration of 1000 μg/mL if all of the drug had dissolved. The sample was quickly mixed using a vortex mixer for about 60 seconds. The sample was centrifuged at 13,000 G at 37° C. for 1 minute. The resulting supernatant solution was then sampled and diluted 1:6 (by volume) with methanol and then analyzed by high-performance liquid chromatography (HPLC). The contents of the tube was mixed on the vortex mixer and allowed to stand undisturbed at 37° C. until the next sample was taken. Samples were collected at 4, 10, 20, 40, 90, and 1200 minutes. The concentrations of drug obtained in these samples are shown in Table 1, which represent the average of duplicate tests.
As a control, an in vitro dissolution test was performed using the procedures described above except that 1.8 mg of crystalline drug was used.
The spray-dried solid amorphous dispersion was evaluated in an in vitro dissolution test using a microcentrifuge method. In this test, 4.5 mg of the spray -dried solid amorphous dispersion was placed into a microcentrifuge tube. The tube was placed in a 37° C. sonicating bath, and 1.8 mL phosphate buffered saline (PBS) at ph 6.5 and 290 mOsm/kg was added, resulting in a torcetrapib concentration of 1000 μg/mL if all of the drug dissolved. The sample was quickly mixed using a vortex mixer for about 60 seconds. The sample was centrifuged at 13,000 G at 37° C. for 1 minute. The resilting superatant solution was then sampled and diluted 1:6 (by volume) with methanol and then analyzed by high-performance liquid chromatography (HPLC). The contents of the tube was mixed on the vortex mixer and allowed to stand undisturbed at 37° C. until the next sample was taken. Samples were collected at 4, 10, 20, 40, 90, and 1200 minutes. The concentrations of drug obtained in these samples are shown in Table 9, which represent the average of duplicate tests. The results using crystalline drug are included in Table 9 for […]

[2] = Aqueous solubility of torcetrapib; format: physicochemical; conditions: aqueous solution (not specified further), water, about 22° C.
Experimental: The CETP inhibitor may be any compound capable of inhibiting the cholesteryl ester transfer protein. Solid amorphous dispersions are particularly useful for CETP inhibitors that have sufficiently low aqueous solubility, low bioavailability or slow rate of absorption such that it is desirable to increase their concentration in an aqueous environment of use. […] Many CETP inhibitors have even lower solubilities (some even less than 0.1 μg/mL), and require dramatic concentration enhancement to be sufficiently bioavailable upon oral dosing for effective plasma concentrations to be reached at practical doses.
CETP inhibitors, in particular torcetrapib, and methods for preparing such compounds are disclosed in detail in U.S. Pat. Nos. 6,197,786 and 6,313,142, in PCT Application Nos. WO 01/40190A1, WO 02/088085A2, and WO 02/088069A2, the disclosures of which are herein incorporated by reference. Torcetrapib has an unusually low solubility in aqueous environments such as the lumenal fluid of the human GI tract. The aqueous solubility of torceptrapib is less than about 0.04 μg/ml. Torcetrapib must be presented to the GI tract in a solubility-enhanced form in order to achieve a sufficient drug concentration in the GI tract in order to achieve sufficient absorption into the blood to elicit the desired therapeutic effect.

[3] = Example 1 test (dispersion 25 wt % torcetrapib)
[4] = Example 12 test (dispersion 40 wt % torcetrapib, HPMCAS-HG)
[5] = time 0 min, Example 1 test (dispersion 25 wt % torcetrapib, HPMCAS-MG)
[6] = time 0 min, Example 12 test (dispersion 40 wt % torcetrapib, HPMCAS-HG)
[7] = time 4 min, Example 1 test (dispersion 25 wt % torcetrapib, HPMCAS-MG)
[8] = time 4 min, Example 12 test (dispersion 40 wt % torcetrapib, HPMCAS-HG)
[9] = time 10 min, Example 1 test (dispersion 25 wt % torcetrapib, HPMCAS-MG)
[10] = time 10 min, Example 12 test (dispersion 40 wt % torcetrapib, HPMCAS-HG)
[11] = time 20 min, Example 1 test (dispersion 25 wt % torcetrapib, HPMCAS-MG)
[12] = time 20 min, Example 12 test (dispersion 40 wt % torcetrapib, HPMCAS-HG)
[13] = time 40 min, Example 1 test (dispersion 25 wt % torcetrapib, HPMCAS-MG)
[14] = time 40 min, Example 12 test (dispersion 40 wt % torcetrapib, HPMCAS-HG)
[15] = time 90 min, Example 1 test (dispersion 25 wt % torcetrapib, HPMCAS-MG)
[16] = time 90 min, Example 12 test (dispersion 40 wt % torcetrapib, HPMCAS-HG)
[17] = time 1200 min, Example 1 test (dispersion 25 wt % torcetrapib, HPMCAS-MG)
[18] = time 1200 min, Example 12 test (dispersion 40 wt % torcetrapib, HPMCAS-HG)

- AUC90 (area under the aqueous concentration versus time curve after 90 minutes) [1, 3]: <88 min-μg/mL
- C1200 (concentration at 1200 minutes) [1, 3]: <1 µg/mL
- MDC90 (maximum concentration of torcetrapib in solution during the first 90 minutes) [1, 3]: <1 µg/mL
- AUC90 (area under the aqueous concentration versus time curve after 90 minutes) [1, 4]: <88 min-μg/mL
- C1200 (concentration at 1200 minutes) [1, 4]: <1 µg/mL
- MDC90 (maximum concentration of torcetrapib in solution during the first 90 minutes) [1, 4]: <1 µg/mL
- Torcetrapib Concentration [1, 5]: 0 µg/mL
- Torcetrapib Concentration [1, 6]: 0 µg/mL
- AUC [1, 5]: 0 min-μg/mL
- AUC [1, 6]: 0 min-μg/mL
- Torcetrapib Concentration [1, 7]: <1 µg/mL
- Torcetrapib Concentration [1, 8]: <1 µg/mL
- AUC [1, 7]: <2 min-μg/mL
- AUC [1, 8]: <2 min-μg/mL
- Torcetrapib Concentration [1, 9]: <1 µg/mL
- Torcetrapib Concentration [1, 10]: <1 µg/mL
- AUC [1, 9]: <8 min-μg/mL
- AUC [1, 10]: <8 min-μg/mL
- Torcetrapib Concentration [1, 11]: <1 µg/mL
- Torcetrapib Concentration [1, 12]: <1 µg/mL
- AUC [1, 11]: <18 min-μg/mL
- AUC [1, 12]: <18 min-μg/mL
- Torcetrapib Concentration [1, 13]: <1 µg/mL
- Torcetrapib Concentration [1, 14]: <1 µg/mL
- AUC [1, 13]: <38 min-μg/mL
- AUC [1, 14]: <38 min-μg/mL
- Torcetrapib Concentration [1, 15]: <1 µg/mL
- Torcetrapib Concentration [1, 16]: <1 µg/mL
- AUC [1, 15]: <88 min-μg/mL
- AUC [1, 16]: <88 min-μg/mL
- Torcetrapib Concentration [1, 17]: <1 µg/mL
- Torcetrapib Concentration [1, 18]: <1 µg/mL
- AUC [1, 17]: <1,200 min-μg/mL
- AUC [1, 18]: <1,200 min-μg/mL
- solubility [2]: < 0.04 µg/mL
SMILES: CCOC(=O)N1c2ccc(C(F)(F)F)cc2[C@@H](N(Cc2cc(C(F)(F)F)cc(C(F)(F)F)c2)C(=O)OC)C[C@H]1CC [Crystalline Drug, [2R,4S]-4-[(3,5-bis-trifluoromethyl-benzyl)-methoxycarbonyl-amino]-2-ethyl-6-trifluoromethyl-3,4-dihydro-2H-quinoline-1-carboxylic acid ethyl ester]
